Data reported in US20220332839A1, “USE OF PRG4 TO TREAT CANCER” (Lubris LLC, priority 2019, published 2022).
pIC50: −log10 of the molar value.

Experiments:
[1] = test system: MDA-MB-231 cell-derived organoids; test: Three-dimensional Matrigel culture, proportion of spherical vs invasive organoids; type: cell-based, human; conditions: for TGFβ-induced invasive growth of organoids: rhPRG4 0.1, 10, 100 μg/mL, 4-MU 0.5 mM
Experimental: For three-dimensional culture assays, 50 μl of ice-cooled 33% growth factor-reduced Matrigel (Corning Incorporated, USA) in complete growth medium, consisting of DMEM containing 10% FBS, penicillin, streptomycin and amphotericin B (Invitrogen, Canada), was added per well of a 96-well flat bottom, ultra-low attachment plate (BD Biosciences, Canada) followed by storing the plate for 1 hour in a 5% CO2 humidified incubator at 37° C. to allow formation of a 1 mm-thick Matrigel bed in the well. Next, approximately 400 isolated MDA-MB-231 cells, suspended in 50 μl ice-cooled 50% Matrigel in complete growth medium, were layered on top of the Matrigel bed per well of the 96-well plate and incubated inside 5% CO2 humidified incubator at 37° C. One hour post addition and 37° C. incubation of Matrigel-cells suspension, 50 μl of complete growth medium was added to cover the solidified Matrigel-cells mixture. The following day and, every third day, the three-dimensional cultures received 50 μl of fresh complete growth medium without or with specified reagents as listed in the figure descriptions. On Day 8 of culture, differential interference contrast (DIC) images were captured of 8 representative organoids from each well, using light microscopy at 30× objective (Olympus IX70, Canada). […] Number of smooth surfaced organoids without any protrusions, designated as “spherical” were counted out of eight representative images in each well and then percentage of spherical organoids in each condition were plotted in bar graphs. Each experiment was performed at least three independent times for statistical analyses.

MDA-MB-231 cells = test: In vitro trans-well invasion assay; type: cell-based, human; conditions: 100 pM TGFβ; 400 μg/mL LMWHA
Experimental: Overnight 0.2% FBS-containing DMEM incubated, i.e. serum-starved, MDA-MB-231 cells were used for the transwell invasion using polycarbonate filters (24-well insert, pore size 8 μm; BD Biosciences, Canada). Prior to addition of cells, each insert was placed within a well of a 24-well tissue culture plate and equilibrated with 0.5 mL serum-free DMEM, added both to the upper and lower chambers at 37° C. for 2 h. The equilibration media was then gently removed and upper chamber surface of the insert was coated with 50 μL of 3% Matrigel and allowed to solidify at 37° C. for 1 h. 1×10^5 serum-starved MDA-MB-231 cells were resuspended in 0.5 mL of serum-free DMEM and added to the upper Matrigel-coated chamber. 500 μL complete growth medium alone or containing specific reagents, as described in the respective figure descriptions, was added to the lower chambers. Cells were allowed to invade the matrix for 12 h at 37° C. after which non-adherent cells were removed by PBS washing of cell layers on the upper chamber three times. During the second wash a cotton tip applicator was used to gently scrape away the adherent cells on the upper surface of the membrane. Invading cells were fixed by immersing the transwell inserts in 100% methanol for 10 minutes at −20° C., followed by staining with 0.5% crystal violet dye (EMD Millipore, Canada) for 1 h at room temperature. Eight randomly chosen fields of each stained membrane were imaged at 10× objective of a DIC microscope (Olympus IX70) coupled to a digital camera. Cell numbers were obtained by counting the number of crystal violet stained cells in each field using a handheld counter. The average cell numbers for all images per treatment conditions were calculated and used for further statistical analysis. Each experiment was performed at least three independent times.

CD44-IgG1Fc = molecular target: T1, CD44-IgG1Fc (Homo sapiens, UniProt P16070); test: Direct ELISA: binding of coated macromolecules to CD44-IgG1Fc; conditions: for percentage binding to CD44 of enzyme-digested rhPRG4 compared to untreated control: coating 30 μg/mL, digestion 16 hours at 37° C.
T1 construct: purchased R & D systems
Experimental: High-binding microtiter plates (Corning, Sigma Aldrich, USA) were coated with rhPRG4 (Mr≅240 KDa), high molecular weight HA (HMW HA; Mr≅1,500 KDa) (R & D System, USA), medium molecular weight HA (MMW HA; Mr≅′300KDa) (R & D System) and vitronectin KDa) (Sigma Aldrich) at 400 μg/mL in PBS buffer (100 μL per well) overnight at 4° C. rhPRG4 is a full-length product produced by CHO-M cells (Lubris, Framingham, Mass., USA). Following washing with PBS+0.1% Tween 20, wells were blocked with 2% bovine serum albumin (BSA; 300 μL per well) for at least 2 hours at room temperature. CD44-IgG1Fc (R & D systems) or IgG1Fc (R & D systems), each at 1 μg/mL (100 μl per well), were added to the plate and incubated for 60 min at room temperature. Following washing with PBS+0.1% tween 20, anti-IgG1Fc-HRP (Sigma Aldrich) was added at 1:10,000 dilution (100 μL per well) and incubated for 60 min at room temp. Following washing with PBS+0.1% tween 20, the assay was developed using 1-step Turbo TMB ELISA reagent (ThermoScientific, USA) and absorbance was measured at 450 nm. The data represents an average of 4 independent assays, each with triplicate wells per group.
The concentration-dependent binding of rhPRG4, HMW HA and MMW HA to CD44 was performed by coating microtiter plates with 400, 200, 100, 20, 4, 2 and 0.1 μg/mL of the macromolecules. The assay was performed as described above. The absorbance values in the IgG1Fc wells were subtracted from the absorbance values in the CD44 IgG1Fc wells and the corrected CD44 IgG1Fc absorbance values were normalized to those of the 400 μg/mL rhPRG4 group and data was expressed as percentage binding to CD44. The concentration-dependent binding of rhPRG4, HMW HA and MMW HA to recombinant CD44 is depicted in FIG. 1B. […] The data represents an average of 4 independent assays, each with triplicate wells per group.
rhPRG4 was digested using sialidase A (Prozyme, USA), O-glycosidase (New England Biolabs, USA) or a combination of sialidase A and O-glycosidase for 16 hours at 37° C. In the sialidase A digestion, 12 μL of the enzyme (1U/200 μL) was added to rhPRG4 in a total reaction volume of 180 μL and a rhPRG4 final concentration of 300 μg/mL. In the O-glycosidase digestion, 4.8 μL of the enzyme (40million units/mL) was added to rhPRG4 in a total reaction volume of 180 μL and a rhPRG4 final concentration of 300 μg/mL under non-denaturing conditions. In the sialidase-A and O-glycosidase digestion, the enzymes were used in volumes identical to the ones stated above and incubated with rhPRG4 in a total reaction volume and final rhPRG4 concentration as stated above. The effect of sialidase-A and O-glycosidase digestions on rhPRG4 apparent molecular weight was determined by SDS-PAGE using 4-12% Bis-Tris gel (NuPage, life technologies, USA). A total of 20 μL of rhPRG4 or enzyme-digested rhPRG4 was run under reducing conditions ([…] for 60 min) followed by staining using Gelcode Blue Stain (Thermo Scientific, USA). Binding of enzymatically digested rhPRG4 to CD44 was compared to undigested rhPRG4 using the direct ELISA approach described above and using an rhPRG4 coating concentration of 30 μg/mL. Data represents the average of 4 independent experiments, each with triplicate wells per group.

CD44-shRNA HCC cells = test: 72-hour proliferation assay, CD44-silenced HCC cells; type: cell-based, human; conditions: 2.5 μM drug; rhPRG4 0 to 100 μg/ml; p<0.05 to p<0.001
Description: Stable CD44 silencing: HLE and HLF cell lines were transduced with lentiviral particles carrying control non-targeting (V), or specific CD44-targeting shRNA sequences (A to D), and selected with puromycin dihydrochloride (Thermo Fisher Scientific) to obtain stable CD44 silencing, according to manufacturer instructions (OriGene Technologies, Inc., Rockville, Md. 20850, USA). Control-shRNA sequence (V) and CD44-shRNA sequence B were used in all the experiments involving CD44 downregulation.
Proliferation assay: In 100 μl complete medium, 3,000 cells were seeded in wells of a 96-well plate and left overnight to allow complete attachment. The next day (at time t=0 hours), the medium was removed and replaced with 100 μl of fresh medium in the presence/absence of Sorafenib (2.5 μM), Regorafenib (2.5 μM), rhPRG4 (12.5 to 100 μg/ml). Dimethyl sulfoxide (DMSO) and PBS+0.01% Tween-20 were used as vehicles of Sorafenib/Regorafenib, and rhPRG4, respectively. Cells in triplicate wells for each cell line were fixed at t=0 hours with 4% paraformaldehyde (PFA, pH 7.6, 10 min incubation), then stained with crystal violet (CV) and thoroughly washed to remove the excess staining. […] Optical density was at 595 nm wavelength measured using a plate reader.

[2] = test system: HCC cells (HLE, HLF, PLC/DC/19, Hep3B, PLC/PRF/5); test: 72-hour proliferation assay, all HCC cells; type: cell-based, human; conditions: Homo sapiens, same experimental conditions
Experimental: Proliferation assay: In 100 μl complete medium, 3,000 cells were seeded in wells of a 96-well plate and left overnight to allow complete attachment. The next day (at time t=0 hours), the medium was removed and replaced with 100 μl of fresh medium in the presence/absence of Sorafenib (2.5 μM), Regorafenib (2.5 μM), rhPRG4 (12.5 to 100 μg/ml). Dimethyl sulfoxide (DMSO) and PBS+0.01% Tween-20 were used as vehicles of Sorafenib/Regorafenib, and rhPRG4, respectively. Cells in triplicate wells for each cell line were fixed at t=0 hours with 4% paraformaldehyde (PFA, pH 7.6, 10 min incubation), then stained with crystal violet (CV) and thoroughly washed to remove the excess staining. After 72 hours, the cells were fixed by adding 100 μl of 4% PFA directly to the medium (2% final PFA concentration, 20 min incubation), and processed for CV staining as previously described. Then, 100 or 200 μl of 1% sodium dodecyl-sulphate were added to the wells and the plates were left under shaking until complete CV release from stained cells. Optical density was at 595 nm wavelength measured using a plate reader.

lubricin (PRG4) mRNA = test: PRG4 mRNA expression in CAFs and ex vivo HCC specimens; type: cell-based, human
Experimental: RNA extraction and cDNA synthesis: […] of frozen ex-vivo treated HCC tissues were ground with a mortar-pestle in the presence of liquid nitrogen until a thin powder was obtained. The ground tissues were lysed with 0.5-1 ml of RLT buffer+1% (BME) and then processed according to the manufacturer's recommendations (RNeasy kit, Qiagen). […] The obtained RNA was assayed for quality and concentration using the NanoDrop 2000/2000c (Thermo Fisher Scientific). cDNA was synthetized using the High Capacity cDNA reverse transcription kit (Thermo Fisher Scientific), according to relative datasheet.
Real time PCR: One ng/μl of cDNA was used in total 20 μl reaction mix in the presence of 500 nM of each forward and reverse primer referred to a specific gene of interest, and 2×SYBR green master mix (Bio-Rad). The reaction was conducted in a CFX96 Touch Real-Time Detection System (Bio-Rad).
CAFs isolation: Immediately after surgical resection, HCC tumoral and peritumoral specimens were minced into 0.5-1 cm pieces and left in MACS Tissue Storage Solution (Miltenyi Biotec). The tissues were then further cut into smaller size pieces (1-2 mm), washed three times in Hanks balanced salt solution (HBSS), and then incubated in HBSS in the presence of type IV collagenase (Thermo Fisher Scientific) and 3 mM CaCl2 at 37° C. under gentle rotation for 4 hours. At the end of this step, the dissociation was mechanically facilitated by pipetting up-down the digested tissues with a large size orifice 50 ml pipette. The floating cells were collected and washed three times with HBSS and seeded in normal culture conditions in IMDM+20% FBS. The decanted, partially digested tissue specimens were subjected to a second round of digestion (as previously described). The resulting dissociated cells were washed with HBSS and cultured in IMDM+20% FBS. […] The presence of minimal contaminating non-fibroblastic cells (mostly cancerous hepatocytes, cholangiocytes and macrophages) was evaluated using antibodies to EpCAM, CD45, and CD11b.

T1 sequence (P16070 with tags, fused parts or gaps limits assumed): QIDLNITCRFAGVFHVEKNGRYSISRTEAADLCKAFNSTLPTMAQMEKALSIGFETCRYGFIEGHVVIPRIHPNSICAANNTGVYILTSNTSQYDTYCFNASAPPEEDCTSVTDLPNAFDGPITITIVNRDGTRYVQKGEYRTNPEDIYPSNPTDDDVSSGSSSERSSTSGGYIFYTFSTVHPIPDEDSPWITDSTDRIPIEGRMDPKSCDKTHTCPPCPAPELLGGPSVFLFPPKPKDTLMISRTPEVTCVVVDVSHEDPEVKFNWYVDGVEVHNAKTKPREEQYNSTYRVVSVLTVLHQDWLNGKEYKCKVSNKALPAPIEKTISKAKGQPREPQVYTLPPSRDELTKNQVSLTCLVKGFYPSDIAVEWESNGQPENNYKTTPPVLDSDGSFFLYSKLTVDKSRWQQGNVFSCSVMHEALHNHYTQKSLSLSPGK

“Sodium Hyaluronate [LMWHA, reference compound]” was tested, and the “invasive growth of organoids, stimulus alone” value ([1]; 100 pM TGFβ, LMWHA 10, 100 or 400 μg/mL, 8-day) was “increase the proportion of invasive organoids” and the “invasion of cells, stimulus alone vs untreated control” value (MDA-MB-231 cells) was “increased the proportion of invading cells”.
“sialidase-A and O-glycosidase-digested rhPRG4: rhPRG4 digested using a combination of sialidase A and O-glycosidase” was tested, and the “percentage binding to CD44 of enzyme-digested rhPRG4 compared to untreated control” value (“percentage binding to CD44” below) (CD44-IgG1Fc) was “significantly higher”.
For `NC(=O)c1ccc(-c2nc(-c3ccc4c(c3)OCO4)c(-c3ccccn3)[nH]2)cc1` [KI, SB431542, reference compound], the “TGFβ-induced invasive growth of organoids” value ([1]; 100 pM TGFβ, 8-day, KI 10 μM) was “suppressed the TGFβ-induced invasive growth” and the “LMWHA-induced invasive growth of organoids” value ([1]; LMWHA 10-400 μg/mL, 100 μg/mL rhPRG4, KI 10 μM) was “could not reverse the LMWHA effect”.
With `CNC(=O)c1cc(Oc2ccc(NC(=O)Nc3ccc(Cl)c(C(F)(F)F)c3)cc2)ccn1` [Sorafenib] the “capacity in inhibiting cells proliferation in CD44 silenced cells compared to control cells” value (CD44-shRNA HCC cells) was “significantly reduced” and the pIC50 [2] was ~5.30.
With “O-glycosidase digested rhPRG4: rhPRG4 digested using O-glycosidase for 16 hours at 37° C.” the “percentage binding to CD44” value (CD44-IgG1Fc) was “significant increase”.
`CNC(=O)c1cc(Oc2ccc(NC(=O)Nc3ccc(Cl)c(C(F)(F)F)c3)c(F)c2)ccn1` [Regorafenib] was tested, and the “capacity in inhibiting cells proliferation in CD44 silenced cells compared to control cells” value (CD44-shRNA HCC cells) was “significantly reduced” and the pIC50 [2] was ~5.30.
In the case of `Cc1cccc(-c2nn3c(c2-c2ccnc4ccc(C(N)=O)cc24)CCC3)n1` [LY2157299, galunisertib], the “expression of lubricin in comparison to controls” value (lubricin (PRG4) mRNA; LY2157299 alone, 48 hours) was “downregulated the expression of lubricin” and the “effect on TGFβ-enhanced expression of lubricin” value (lubricin (PRG4) mRNA; TGFβ plus LY2157299, 48 hours, p<0.01) was “offset this effect”.
For “vitronectin: vitronectin (Sigma Aldrich), shares sequence homology with lubricin [reference compound]”, the “450 nm absorbance in the CD44-IgG1Fc group vs the IgG1Fc group” value (CD44-IgG1Fc; wells coated at 400 μg/mL, CD44-IgG1Fc or IgG1Fc at 1 μg/mL) was “no significant difference”.
“sialidase-A digested rhPRG4: rhPRG4 digested using sialidase A for 16 hours at 37° C.” was tested, and the “percentage binding to CD44” value (CD44-IgG1Fc) was “significant increase”.
For `Cc1cc(=O)oc2cc(O)ccc12` [4-MU, 4-methylumbelliferone, reference compound], the “TGFβ-induced invasive growth of organoids” value ([1]; 100 pM TGFβ, 8-day, KI 10 μM) was “suppressed TGFβ-induced invasive growth”.
